Measurements taken from ChEMBL document CHEMBL5724914, “Linking interpersonal differences in gut microbiota composition and drug biotransformation activity” (2024).

Tests used:
[1] = (§1) The drug is tested on Z-024 corresponding to pig gut metagenome with ENA study accession number: PRJEB37062 and ENA sample accession number: ERS12561823 for biotransformation under anaerobic condition. The drug concentrations were measured over 9 timepoints collected between 0 and 24 hours of incubation by liquid-chromatography-coupled mass spectrometry (LC–MS); conditions: 2 µM
[2] = human gut metagenome, 24 h, 2 µM
[3] = as §1, with “WLS-039” for “Z-024”, “human” for “pig”, “ERS12561746” for “ERS12561823”; conditions: 2 µM
[4] = human gut metagenome, 24 h, 2 µM; remark: listed apart in the source
[5] = as §1, with “WLS-082” for “Z-024”, “human” for “pig”, “ERS12561751” for “ERS12561823”; conditions: 2 µM
[6] = as §1, with “WLS-052” for “Z-024”, “human” for “pig”, “ERS12561747” for “ERS12561823”; conditions: 2 µM
[7] = as §1, with “Z-026” for “Z-024”, “to” for “to pig gut”, “ERS12561825” for “ERS12561823”; conditions: 2 µM
[8] = as §1, with “Z-011” for “Z-024”, “mouse” for “pig”, “ERS12561811” for “ERS12561823”; conditions: 2 µM
[9] = human gut metagenome, 24 h, 2 µM; remark: listed apart in the source
[10] = human gut metagenome, 24 h, 2 µM; remark: listed apart in the source
[11] = as §1, with “Z-005” for “Z-024”, “to” for “to pig gut”, “ERS12561805” for “ERS12561823”; conditions: 2 µM
[12] = human gut metagenome, 24 h, 2 µM; remark: listed apart in the source
[13] = as §1, with “Z-020” for “Z-024”, “rabbit” for “pig”, “ERS12561819” for “ERS12561823”; conditions: 2 µM
[14] = as §1, with “WLS-027” for “Z-024”, “human” for “pig”, “ERS12561744” for “ERS12561823”; conditions: 2 µM
[15] = as §1, with “Z-010” for “Z-024”, “to” for “to pig gut”, “ERS12561810” for “ERS12561823”; conditions: 2 µM
[16] = as §1, with “WLS-220” for “Z-024”, “human” for “pig”, “ERS12561769” for “ERS12561823”; conditions: 2 µM
[17] = as §1, with “WLS-090” for “Z-024”, “human” for “pig”, “ERS12561753” for “ERS12561823”; conditions: 2 µM
[18] = human gut metagenome, 24 h, 2 µM; remark: listed apart in the source
[19] = as §1, with “WLS-069” for “Z-024”, “human” for “pig”, “ERS12561748” for “ERS12561823”; conditions: 2 µM
[20] = as §1, with “WLS-310” for “Z-024”, “human” for “pig”, “ERS12561785” for “ERS12561823”; conditions: 2 µM
Note: call rule not given here.

Row | Bacterial Biotransformation [1] | Bacterial Biotransformation [2] | Bacterial Biotransformation [3] | Bacterial Biotransformation [4] | Bacterial Biotransformation [5] | Bacterial Biotransformation [6] | Bacterial Biotransformation [7] | Bacterial Biotransformation [8] | Bacterial Biotransformation [9] | Bacterial Biotransformation [10] | Bacterial Biotransformation [11] | Bacterial Biotransformation [12] | Bacterial Biotransformation [13] | Bacterial Biotransformation [14] | Bacterial Biotransformation [15] | Bacterial Biotransformation [16] | Bacterial Biotransformation [17] | Bacterial Biotransformation [18] | Bacterial Biotransformation [19] | Bacterial Biotransformation [20] | Compound
1 | Compound NOT metabolized | Compound NOT metabolized | Compound NOT metabolized | Compound metabolized | Compound NOT metabolized | Compound NOT metabolized | Compound NOT metabolized | Compound NOT metabolized | Compound NOT metabolized | Compound metabolized | Compound NOT metabolized | Compound NOT metabolized | Compound NOT metabolized | Compound NOT metabolized | Compound NOT metabolized | Compound metabolized | Compound metabolized | Compound NOT metabolized | Compound metabolized | Compound NOT metabolized | CNS(=O)(=O)Cc1ccc2[nH]cc(CCN(C)C)c2c1.O=C(O)CCC(=O)O [SUMATRIPTAN SUCCINATE]
2 | Compound metabolized | Compound NOT metabolized | Compound metabolized | Compound metabolized | Compound metabolized | Compound metabolized | Compound metabolized | Compound metabolized | Compound metabolized | Compound metabolized | Compound metabolized | Compound metabolized | Compound metabolized | Compound metabolized | Compound metabolized | Compound metabolized | Compound metabolized | Compound NOT metabolized | Compound metabolized | Compound metabolized | Cc1ccc(S(=O)(=O)NC(=O)NN2CC3CCCC3C2)cc1 (stereo not given) [GLICLAZIDE]
3 | Compound metabolized | Compound NOT metabolized | Compound metabolized | Compound metabolized | Compound metabolized | Compound metabolized | Compound NOT metabolized | Compound NOT metabolized | Compound metabolized | Compound metabolized | Compound metabolized | Compound metabolized | Compound metabolized | Compound metabolized | Compound metabolized | Compound metabolized | Compound metabolized | Compound NOT metabolized | Compound metabolized | Compound metabolized | CCN(CC)CCOCCOC(=O)C1(c2ccccc2)CCCC1.O=C(O)CC(O)(CC(=O)O)C(=O)O [CARBETAPENTANE CITRATE]

Continued, molecule first:

Row | Compound | Bacterial Biotransformation [1] | Bacterial Biotransformation [2] | Bacterial Biotransformation [3] | Bacterial Biotransformation [4] | Bacterial Biotransformation [5] | Bacterial Biotransformation [6] | Bacterial Biotransformation [7] | Bacterial Biotransformation [8] | Bacterial Biotransformation [9] | Bacterial Biotransformation [10] | Bacterial Biotransformation [11] | Bacterial Biotransformation [12] | Bacterial Biotransformation [13] | Bacterial Biotransformation [14] | Bacterial Biotransformation [15] | Bacterial Biotransformation [16] | Bacterial Biotransformation [17] | Bacterial Biotransformation [18] | Bacterial Biotransformation [19] | Bacterial Biotransformation [20]
4 | OCCN1CCN(CCCN2c3ccccc3Sc3ccc(C(F)(F)F)cc32)CC1 [FLUPHENAZINE] | Compound metabolized | Compound NOT metabolized | Compound metabolized | Compound metabolized | Compound metabolized | Compound metabolized | Compound NOT metabolized | Compound metabolized | Compound metabolized | Compound metabolized | Compound metabolized | Compound metabolized | Compound NOT metabolized | Compound metabolized | Compound metabolized | Compound metabolized | Compound metabolized | Compound NOT metabolized | Compound metabolized | Compound metabolized
5 | CC(C)(C#N)c1cc(Cn2cncn2)cc(C(C)(C)C#N)c1 [ANASTROZOLE] | Compound metabolized | Compound NOT metabolized | Compound NOT metabolized | Compound metabolized | Compound NOT metabolized | Compound NOT metabolized | Compound NOT metabolized | Compound NOT metabolized | Compound NOT metabolized | Compound NOT metabolized | Compound NOT metabolized | Compound NOT metabolized | Compound NOT metabolized | Compound NOT metabolized | Compound NOT metabolized | Compound metabolized | Compound metabolized | Compound NOT metabolized | Compound metabolized | Compound metabolized
6 | Cc1ccc(S(=O)(=O)NC(=O)NN2CCCCCC2)cc1 [TOLAZAMIDE] | Compound metabolized | Compound NOT metabolized | Compound metabolized | Compound metabolized | Compound metabolized | Compound metabolized | Compound NOT metabolized | Compound NOT metabolized | Compound metabolized | Compound metabolized | Compound metabolized | Compound NOT metabolized | Compound NOT metabolized | Compound metabolized | Compound metabolized | Compound metabolized | Compound metabolized | Compound NOT metabolized | Compound metabolized | Compound metabolized
7 | CN/C(=N/CCSCc1nc[nH]c1C)NC#N [CIMETIDINE] | Compound NOT metabolized | Compound NOT metabolized | Compound NOT metabolized | Compound metabolized | Compound metabolized | Compound NOT metabolized | Compound NOT metabolized | Compound NOT metabolized | Compound metabolized | Compound metabolized | Compound metabolized | Compound NOT metabolized | Compound NOT metabolized | Compound metabolized | Compound metabolized | Compound metabolized | Compound metabolized | Compound NOT metabolized | Compound metabolized | Compound metabolized
8 | CC(CN(C)C)CN1c2ccccc2CCc2ccccc21.O=C(O)/C=C\C(=O)O (stereo not given) [TRIMIPRAMINE MALEATE] | Compound metabolized | Compound NOT metabolized | Compound metabolized | Compound metabolized | Compound metabolized | Compound NOT metabolized | Compound metabolized | Compound NOT metabolized | Compound metabolized | Compound metabolized | Compound NOT metabolized | Compound NOT metabolized | Compound NOT metabolized | Compound metabolized | Compound NOT metabolized | Compound metabolized | Compound metabolized | Compound NOT metabolized | Compound metabolized | Compound metabolized
